Data: PMC8467577, “Infection Responsive Smart Delivery of Antibiotics Using Recombinant Spider Silk Nanospheres” (Pharmaceutics, 2021)
Peptide text beside a SMILES is read from it.

How the values were obtained:
[1] = Exposure to human serum (HPLC); format: in vitro ADME
Source text: Frequent and inappropriate usage of antibiotics has changed the natural evolution of bacteria by reducing susceptibility and increasing resistance towards antibacterial agents. New resistance mechanisms evolved in the response to host defenses and pharmaceutical interventions are threatening our ability to treat common infections, resulting in increased mortality. In the face of this rising epidemic, antibiotic drug discovery, which has long been overlooked by big pharma, is reaching a critical low. Thus, the development of an infection-responsive drug delivery system, which may mitigate multidrug resistance and preserve the lifetime of our current antibiotic arsenal, has garnered the attention of both popular science and funding agencies. The present work describes the development of a thrombin-sensitive linker embedded into a recombinant spider silk copolymer to create a nanosphere drug delivery vehicle. […] A thrombin sensitive peptide (TSP) was synthesized, and the thrombin cleavage sensitivity was determined by HPLC. […] Subsequently, the peptide was coupled with a silk copolymer via EDC-NHS chemistry and formulated into nanospheres encapsulating antibiotic vancomycin. These nanospheres were evaluated for in vitro infection-responsive drug release and antimicrobial activity. Finally, the drug responsive nanospheres were assessed for efficacy in an in vivo septic arthritis model. […]

[2] = water control, HPLC
Protocol: (§1) The thrombin-sensitive peptide, […] (TSP), was custom synthesized by standard Fmoc synthesis (WatsonBio, Houston, TX, USA). The susceptibility of the peptide to the bacterial thrombin-like enzyme was assessed by exposing the peptide to media from an actively growing S. aureus culture. Enzymatic activity of the media was initially determined by titrating culture exudate into a fluorogenic thrombin substrate, Boc-Val-Pro-Arg-MCA (Sigma Aldrich, St. Louis, MO, USA). TSP was then exposed to the media with varying enzymatic activity and incubated at 37 °C with shaking. The sample was analyzed with HPLC (mobile phase 0.1% TFA/water (A) 0.1% TFA/Acetonitrile (B), under a gradient flow of 5–90% at a flow rate of 1.0 mL/min) every 12 h through 48 h. Protein was detected at a wavelength of 215 nm. A similar experiment was conducted with the recombinant spider silk to check the susceptibility of the silk protein to the bacterial enzyme.
(§2) The susceptibility of the TSP to the bacterial thrombin-like enzyme was assessed by exposing the peptide to media from an actively growing S. aureus culture. Enzymatic activity of the bacterial culture was determined by a fluorogenic thrombin substrate, Boc-Val-Pro-Arg-MCA. TSP was initially titrated into media with varying enzymatic activity to determine the amount of enzyme required to cleave the peptide.

human thrombin = human thrombin (Homo sapiens, UniProt P00734)
Protocol: as §1, §2

[3] = test system: bacterial thrombin-like enzyme (media from an actively growing S. aureus culture); assay: Susceptibility to spent S. aureus culture media (HPLC); conditions: for degradation of silk protein in S. aureus bacterial media: 48 h, different concentrations of spent bacterial media vs control without media, 37 °C, HPLC area under the curve
Protocol: as §1

S. aureus = conditions: standard ZOI values of the free drug for SA; ref not given; cited from earlier work
Protocol: To explore the potential efficacy of this delivery system for the treatment of S. aureus septic arthritis, the antibacterial effect of Vancomycin-loaded nanospheres was first tested in vitro on Staphylococcus aureus. […] Once the MIC was established, antibacterial activity was tested by a Kirby Bauer Zone of Inhibition assay.

[4] = test system: S. aureus infected knee joint; assay: In vivo septic arthritis model, H&E histopathology of knee joint; design: species or system Sprague Dawley rats; conditions: H&E staining, 48 h after local treatment
Protocol: After establishing the septic arthritis disease model, treatment with either free drug, drug-loaded conjugate particles, or drug-loaded silk particles was given on day two after bacterial inoculation. Rats were divided into three treatment groups (Table 1). The first group received drug-loaded (14 mg/kg) conjugate nanoparticles in the infected knee locally delivered into the synovial joint space while the uninfected knee was injected with unloaded conjugate nanoparticles. The second group received drug-loaded plain silk SX2 particles into the infected knee while the uninfected knee was injected with unloaded SX2 particles. The third group received a free drug into the infected knee joint and sterile PBS into the uninfected knee. The treatment was continued for 48 h after which rats were euthanized and limbs were collected for histopathological analysis. Before euthanasia, synovial fluid was collected from the joint space of the infected knee and the control knee of all the groups and cultured on LB agar plates overnight. After incubation overnight, the number of colonies were counted.
Histopathology was performed on the infected and uninfected bones by hematoxylin and eosin (H and E) stain. Initially the bones were harvested from the rat after euthanasia and fixed in 10% neutral buffered formalin for 72 h. […]

[5] = Critical aggregation concentration by pyrene fluorescence; format: physicochemical; conditions: pyrene fluorescence I1/I3 (379/393 nm), phosphate buffer, sonicated 5 min, incubated 1 h
Protocol: The critical aggregation concentration (CAC) of silk was determined by the pyrene fluorescence method. Briefly, 20 µL of 24 µg/mL (working concentration) of a pyrene solution was prepared in acetone and acetone was evaporated. Later, 980 µL of silk peptide in the phosphate buffer at different concentrations was then added to the pyrene, and the mixture was sonicated for 5 min and incubated for 1 h. The fluorescence spectra of the samples were recorded at an excitation of 336 nm and emission of 360–450 nm wavelengths. Intensity peaks at 379 nm (I1) and 393 nm (I3) were recorded. The ratio of I1/I3 was plotted against log concentration, and the point where a sharp inclination in the graph was noted as the CAC.

thrombin = conditions: releasing gentamicin linked to a polyvinyl alcohol (PVA) support matrix; cited from earlier work
Source text: Strategies utilizing microenvironments unique to tissues and disease states as a molecular cue to activate drug release has gained widespread attention in the treatment of various diseases like cancer, diabetes, and bacterial infections as it increases drug stability and therapeutic efficacy while decreasing toxic side effects at the same time. Several enzymes including a thrombin-like enzyme in S. aureus, myeloperoxidase in Candida, and esterases in uropathogens were reported to be elevated during infection, whereas virulence factors for certain bacteria like b ...

For `C[C@H](NC(=O)[C@@H]1CCCN1C(=O)[C@H](Cc1ccccc1)NC(=O)CNC(=O)[C@H](CCCNC(=N)N)NC(=O)[C@@H]1CCCN1C(=O)[C@H](CC(=O)O)NC(=O)[C@H](Cc1ccccc1)NC(=O)CNC(=O)[C@H](CCCCN)NC(=O)[C@H](CC(=O)O)NC(=O)[C@H](CC(=O)O)NC(=O)[C@H](CC(=O)O)NC(=O)[C@H](CC(=O)O)NC(=O)[C@H](Cc1c[nH]cn1)NC(=O)[C@H](Cc1c[nH]cn1)NC(=O)[C@H](Cc1c[nH]cn1)NC(=O)[C@H](Cc1c[nH]cn1)NC(=O)[C@H](Cc1c[nH]cn1)NC(=O)[C@@H](N)Cc1c[nH]cn1)C(=O)NCC(=O)NCC(=O)O` [TSP] (H-HHHHHHDDDDKGFDPRGFPAGG-OH), the “cleavage on exposure to human serum” value [1] was “no cleavage”, the “stability in water after 24 h” value ([2]; 24 h exposure, n = 3) was “intact” and the stability in water ([2]; data not shown) was “still intact”. For the same molecule, the “degradation in human thrombin after 48 h” value (human thrombin) was “minimal degradation”, the “stability to human thrombin” value (human thrombin) was “still intact” and the “stability to human thrombin after 24 h” value (human thrombin) was “intact”. The “cleavage on incubation with S. aureus exudate” value ([3]; S. aureus exudate, HPLC) was “cleaved” and the “time to cleavage of the peptide in S. aureus bacterial media” value ([3]; media from actively growing S. aureus culture, enzymatic activity 23 a.u., 37 °C with shaking, HPLC 215 nm every 12 h through 48 h) was no more than 12 h.

For `CN[C@H](CC(C)C)C(=O)N[C@H]1C(=O)N[C@@H](CC(N)=O)C(=O)N[C@H]2C(=O)N[C@H]3C(=O)N[C@H](C(=O)N[C@H](C(=O)O)c4cc(O)cc(O)c4-c4cc3ccc4O)[C@H](O)c3ccc(c(Cl)c3)Oc3cc2cc(c3O[C@@H]2O[C@H](CO)[C@@H](O)[C@H](O)[C@H]2O[C@H]2C[C@](C)(N)[C@H](O)[C@H](C)O2)Oc2ccc(cc2Cl)[C@H]1O` [vancomycin-free drug, vancomycin], the “standard ZOI value” (S. aureus) is given as greater than 12 mm and the “histopathological findings in infected joint” value [4] is given as “similar, if not more inflamed, appearance”.

With “(GGYGPGQQGPGGYGPGQQGPSGPGSAAAAAAAA)2 [silk]” the “critical aggregation concentration (CAC)” value [5] was 1.2 mg/mL, the “degradation of silk protein in S. aureus bacterial media” value ([3]; listed as silk peptide) was “stability of the peptide even after 48 h” and the “degradation of silk protein in S. aureus bacterial media” value ([3]; listed as silk protein) was “no significant difference in the degradation”.

For GFDPRGFPAGG, the “time to complete cleavage” value (thrombin) is given as no more than 15 min.
